# Assay results from US11413278B2, “Compounds and methods for promoting stress resistance” (priority 2015, dated 2022).
# Where two headings read alike, the source gives them in different places.
# Legend:
# [1] = system: WI-38 cells; conditions: for Assay 1: H2O2-resistant: YES/NO, if NO, possibly due to repeated freezing/thawing of stocks; for EC50: read-out: Est. ED50
# [2] = system: WI-38 cells; assay: CdCl2 (cadmium) resistance assay; assay type: cell-based, human; conditions: YES/NO; for Assay 2: Cadmium-resistant: * indicates partial
# Method: (§1) For many stress conditions tested previously, one significant correlation to longevity is the cellular resistance to H2O2 or CdCl2. Applicants then tested these small molecules, at five different final concentrations (0.25 μM to 20 μM), for cadmium and MMS resistance in WI-38 cells.
# (§2) The setups on 384-well plates and incubation times were the same as for H2O2 until the time of incubation with the stressors, which was 12 hours for both cadmium and MMS assays. Applicants tested several conditions, including conditions used to assay fibroblasts from long-lived animals (Salmon et al., 2005). These conditions produced better results with the positive controls (KEAP1 and AKT1 siRNAs) in the MMS assay. Thus, for MMS, the cells were shifted from growth media—OptiMEM+10% FBS, to DMEM (Gibco)+2% BSA (no serum) just before adding small molecules, which occurred 24 hours before MMS addition.
# (§3) Isolated small molecules were tested for MMS and cadmium resistance twice in two independent assays. Each small molecule was analyzed at five different concentrations (0.25 μM to 20 μM final concentration), with technical triplicates for each dose. Data were analyzed using a global variance t-test.
# [3] = system: NRF2; assay: in vitro; assay type: cell-based, human; conditions: 10 uM; YES/NO
# Method: (§4) For qPCR analysis, WI-38 cells were treated with small molecules (at 10 μM) (biological quadruplicates) for 24 hrs and processed for RNA isolation and reverse transcription (RT) with the Cells-to-Ct Kit (Life Technologies), following manufacturer's instructions. RT products were diluted with H2O and used for qPCR analysis on an ABI 7300 system (Life Technologies) (technical triplicates). Relative expression levels of target genes were normalized to the genes B2M, PPIA and GAPDH. To knock down the expression of FOXO3 or NRF2, WI-38 cells were transfected, using the RNAiMAX reagents (Life Technologies), with siRNA oligos (at 10 nM final concentration, 10 ml culture medium) for FOXO3 (Life Technologies) or NRF2 (Integrated DNA Technologies) on 10-cm petri dishes for 36 hrs, and then detached and aliquoted onto 96-well (for qPCR analysis) or 384-well plates (for H2O2-stress treatment). ˜24 hrs later, small molecules were introduced and incubated with cells for 24 hrs. Cells were then either processed with the Cells-to-Ct Kit to prepare RT products for qPCR analysis or subjected to H2O2 (700 μM) for 3 hrs and assayed for viability. The knockdown efficiency of FOXO3 or NRF2 was checked at 36 hrs post-transfection and at the end as well.
# (§5) For qPCR analysis, WI-38 cells were treated with small molecules (at 10 μM) (biological quadruplicate) for 24 hrs and processed for RNA isolation and reverse transcription (RT) with the Cells-to-Ct Kit (Life Technologies), following manufacturer's instructions. RT products were diluted with H2O and used for qPCR analysis on a LightCycler 480 system (Roche) (technical triplicates). Relative expression levels of target genes were normalized to the genes B2M, PPIA and GAPDH. To knock down the expression of FOXO3 or NRF2, WI-38 cells were transfected with siRNA oligos (at 10 nM final concentration) for FOXO3 (Life Technologies) or NRF2 on 10-cm petri dish for 36 hrs, and then detached and aliquoted onto 96-well plates. ˜24 hrs later, small molecules were introduced and incubated with cells for 24 hrs. Cells were then processed with the Cells-to-Ct Kit to prepare RT products for qPCR analysis. The knockdown efficiency of FOXO3 or NRF2 was checked at 36 hrs post-transfection and at the end as well.
# Of these, O15 and O20 consistently (in 3 of 3 experiments) required NRF2 to promote H2O2-resistance, and their resistance capacities were reduced by ˜90% on average upon NRF2 knockdown under conditions tested.
# [4] = system: human dermal fibroblast (HDF) primary cells; assay: H2O2-resistance in primary human dermal fibroblasts; assay type: cell-based; conditions: YES/NO
# [5] = system: WI-38 cells; assay: MMS resistance assay; assay type: cell-based, human; conditions: YES/NO; for Assay 3: MMS-resistant: * indicates partial; for Assay 5: Triple resistant: H2O2, cadmium and MMS
# Method: as §1, §2, §3
# [6] = system: mTOR; assay: mTOR inhibition (RPS6 phosphorylation status), In-Cell Western; assay type: cell-based, human
# Method: In-Cell Western assays were performed, following a standard immuno-staining protocol. Briefly, WI-38 cells were treated with small molecules for 24 hrs, and then processed and incubated with primary antibody cocktail (Cell Signaling, mouse anti-RPS, 1:25; rabbit-anti-pRPS6-(Ser-235/236), 1:100) overnight at 4° C. Next day, samples were processed and incubated with fluorophore-conjugated secondary antibodies (Cell Signaling, DyLight 680-goat anti-mouse, 1:500; DyLight 800-goat anti-rabbit, 1:1,000). Images were collected on an Odyssey Imager (LI-COR) and analyzed with the Image Studio Lite software (version 5.0.21).
# Mammalian target of rapamycin (mTOR) is a crucial regulator of cell growth and metabolism and has been implicated in aging and many diseases, including cancer, diabetes and neurological diseases (Dazert and Hall, 2011; Zoncu et al., 2011). […] In addition, the anti-diabetes drug metformin (Kalender et al., 2010), as well as other AMPK activators such as 2-deoxy-D-glucose (Inoki et al., 2003) and AICAR (Shaw et al., 2004), could inhibit mTORC1. Applicants examined the effects of our molecules (at three doses, 5 μM, 10 μM and 20 μM) on the phosphorylation status of ribosomal protein S6 (RPS6), a readout of mTOR activity, to ask whether they could inhibit mTOR.
# In-Cell Western assays were performed, following the same procedures to analyze DNA-damage markers. WI-38 cells were incubated with small molecules for 24 hrs, and then processed and incubated with primary antibody cocktail (mouse anti-RPS, 1:25; rabbit-anti-pRPS6, 1:100) overnight at 4° C. Next day, samples were processed and incubated with fluorophore-conjugated secondary antibodies (goat anti-mouse, 1:500; goat anti-rabbit, 1:1,000) in antibody dilution buffer. Images were collected on an Odyssey Imager (LI-COR) and analyzed with the Image Studio Lite software.
# [7] = system: C. elegans; assay: C. elegans lifespan assays (liquid and plate); assay type: in vivo, Caenorhabditis elegans; conditions: Caenorhabditis elegans, at 66 uM
# [8] = system: FOXO3; assay: qPCR analysis of FOXO3-regulated genes; assay type: cell-based, human; conditions: Homo sapiens, 24 h, Assay 10(m), at 10 uM, qPCR
# Method: as §4, §5
# Many perturbations that increase lifespan and stress resistance in animals do so in a FOXO-dependent fashion (Kenyon, 2010c). Humans have several FOXO genes, but FOXO3, which promotes stress resistance in mammalian cell culture (Kops et al., 2002; Nemoto and Finkel, 2002; Tran et al., 2003), is the one that has been linked to exceptional longevity in humans (Anselmi et al., 2009; Flachsbart et al., 2009; Li et al., 2009; Pawlikowska et al., 2009; Soerensen et al., 2010; Willcox et al., 2008). FOXO1, in contrast, appears to be responsible for some symptoms of diabetes in mouse models (Cheng and White, 2011). For this reason, applicants have focused on analyzing potential ability of our small molecules to activate FOXO3. […] Another 4 molecules (Gr-7A, Gr-7C, O12 and O23) could induce robust expression (greater than 1.5-fold) of at least 2 FOXO3 target genes.
# [9] = system: NRF2; assay: qPCR analysis of NRF2-regulated genes; assay type: cell-based, human; conditions: Homo sapiens, 24 h, Assay 12(o), at 10 uM, qPCR
# Method: as §4, §5
# NRF2/SKN-1, the oxidative stress and xenobiotic phase 2 detoxification protein, can extend animal lifespan (Sykiotis and Bohmann, 2008; Tullet et al., 2008). Applicants analyzed these small molecules for their ability to increase the expression of NRF2-regulated genes, including HMOX1 (heme oxygenase (decycling) 1; anti-oxidant), NQO1 (NAD(P)H dehydrogenase, quinone 1; phase 2 detoxification enzyme), GCLC (glutamate-cysteine ligase, catalytic) and GSTM1 (glutathionine S transferase) (Hur and Gray, 2011; Suzuki et al., 2013).
# [10] = system: WI-38 cells; conditions: Assay 8(k); without H2O2, at 10 uM
# Method: WI-38 cells were seeded on 384-well plates for 24 hrs and then incubated with small molecules for 24 hrs. […] Images were collected on an INCell Analyzer 2000 (GE) and analyzed with the Developer software.
# [11] = Assay 2(z), 1.0 × 10^9 bacteria/ml, wild type + FuDR (2012 July), read-out: Lifespan assay in liquid
# [12] = Assay 3(aa), 2.5 × 10^9 bacteria/ml, wild type + FuDR, read-out: Lifespan assay in liquid
# [13] = dose response 0.6-20 μM, H2O2-resistance
# [14] = read-out: Induction of FOXO3-regulated genes: SOD2 normalized fold-change
# [15] = read-out: Induction of NRF2-regulated genes: HMOX1 normalized fold-change
# [16] = read-out: Induction of NRF2-regulated genes: NQO1 normalized fold-change
# [17] = Assay 4(ab), 2.0 × 10^10 bacteria/ml, CF512 worms, no FuDR, read-out: Lifespan assay on plates
SMILES,Assay 1: H2O2-resistant [1],Assay 4: H2O2- & Cd-resistant [2],Assay 2: Cadmium-resistant [2],"Assay 6: H2O2-resistant, at 10 uM, human dermal fibroblast (HDF) primary cells [4]",Assay 3: MMS-resistant [5],Assay 5: Triple resistant [5],"ILS at 66 µM [7, 11] [%]","ILS at 66 µM [7, 12] [%]","EC50 [1, 13] [µM]","fold induction at 10 µM [8, 14]","fold induction at 10 µM [9, 15]","fold induction at 10 µM [9, 16]","ILS at 66 µM [7, 17] [%]",PI cell-death imaging without H2O2 (indicating potential toxicity) [10],other results
Oc1nc2ccccc2n2cccc12 [O4],YES,YES,YES,YES,YES,YES,,,,,,,,,EC50 [1]: 11.2 µM; Assay 17: NRF2-dependency for H2O2-resistance [3]: YES
"CO[C@H]1C[C@@H]2CC[C@@H](C)[C@@](O)(O2)C(=O)C(=O)N2CCCC[C@H]2C(=O)O[C@H]([C@H](C)C[C@@H]2CC[C@@H](O)[C@H](OC)C2)CC(=O)[C@H](C)/C=C(\C)[C@@H](O)[C@@H](OC)C(=O)[C@H](C)C[C@H](C)/C=C/C=C/C=C/1C [rapamycin, reference compound]",,,,,,,,,,,,,,,Reduction of ratio of pRPS6/RPS6 by rapamycin [6]: ≥ 90%; Reduction of phosphorylated form of RPS6 by rapamycin (normalized) ([6]; control): 95%
Oc1nc(-c2ccccn2)nc2c1Cc1cc(F)ccc1O2 [O24],YES,YES,YES,YES,YES,YES,13,2.3,7.5,1.2,9.55,1.48,,,fold induction at 10 µM ([8]; read-out: Induction of FOXO3-regulated genes: SESN1 normalized fold-change): 1.93; fold induction at 10 µM ([8]; read-out: Induction of FOXO3-regulated genes: TXNIP normalized fold-change): 0.61; fold induction at 10 µM ([9]; read-out: Induction of NRF2-regulated genes: GCLC normalized fold-change): 0.7; fold induction at 10 µM ([9]; read-out: Induction of NRF2-regulated genes: GSTM1 normalized fold-change): 1.24
Cc1ccc(S(=O)(=O)/C(C#N)=C/c2c(Oc3ccc(Cl)c(C)c3)nc3ccccn3c2=O)cc1 [Gr-5C],,,,YES,,,32.6,1.6,15.7,,1.67,1.49,-6.9,YES,
CO/C(O)=C1\C(C)=NC2=C(C(=O)CC(c3cccs3)C2)C1c1ccc(F)c(F)c1 (stereo not drawn) [O5],YES,YES,YES,YES,YES,YES,48.9,18.9,20,0.77,2.15,,46.2,YES,"ILS at 66 µM ([7]; Assay 5(ac), 1.0 × 10^11 bacteria/ml, CF512 worms, no FuDR, read-out: Lifespan assay on plates): 46.3%; ILS at 66 µM ([7]; Assay 6(ad), 2.0 × 10^10 bacteria/ml, CF512 worms, no FuDR, read-out: Lifespan assay on plates): 10.2%; ILS at 66 µM ([7]; Assay 7(ae), 1.0 × 10^11 bacteria/ml, CF512 worms, no FuDR, read-out: Lifespan assay on plates): 32%; fold induction at 10 µM ([8]; read-out: Induction of FOXO3-regulated genes: GADD45A normalized fold-change): 0.45"
